Test results: patent US20030022812A1, “Treating pain by targeting hyperpolarization-activated, cyclic nucleotide-gated channels” (priority 2001, published 2003)

Assays:
[1] = tested on: preclinical models of neuropathic pain; conditions: Chaplan 1999; cited from earlier work
[2] = tested on: CFA-injected rats; assay: Tactile allodynia (von Frey) in complete Freund's adjuvant (CFA) paw model of inflammatory pain; type: in vivo, rat; conditions: i.p., ZD7288 10 mg/kg, ibuprofen 30 mg/kg, morphine 3 mg/kg, gabapentin 100 mg/kg
[3] = tested on: Ih; conditions: applied intracellularly at 5 or 10 mM (Perkins et al. 1995); cited from earlier work
[4] = tested on: rat mild thermal injury model; assay: Spontaneous pain behaviors in rat mild thermal injury (first-degree burn) model; type: in vivo; conditions: 30 and 60 min after i.p. administration
[5] = tested on: native Ih in normal rat L4 dorsal root ganglion neurons; assay: Whole cell patch clamp of native Ih in dissociated normal rat L4 DRG neurons, lidocaine block; type: cell-based
Method: Lidocaine was tested for its effect on Ih expressed in dissociated L4 dorsal root ganglion neurons from uninjured rats to determine whether this well known Na channel blocker could have other mechanisms of action.
DRG were extirpated, dissociated and cultured 3-4 days on poly-D-lysine coated coverslips as described in Example 10. Ih was measured using the whole cell configuration of the patch clamp technique according to the methods described in Example 10 with the exception that the pipette solution was the solution used in Example 3. Neurons were challenged with a family of hyperpolarizing voltage pulses (−60 mV to −150 mV in increments of 10 mV) from a holding potential of −50 mV. Ih was determined at the end of 600 msec duration test pulses. Lidocaine was bath-applied at neutral pH and the percent inhibition of control Ih was determined after lidocaine achieved steady state block. Plotted is the steady state current observed at −134 mV as a percent of control after incubation of lidocaine at the indicated concentrations. […] Lidocaine block was reversible. Data were obtained from 3 cells having control Ih densities of −1.5, −2.0 and −2.2 pA/pF.

[6] = tested on: Ih in rabbit sinoatrial node; conditions: rabbit sinoatrial node (Rocchetti et al. 1999); read-out: ED50 of Ih block previously reported; cited from earlier work

In the case of `CCCCN1CCCCC1C(=O)Nc1c(C)cccc1C` (stereo not shown) [bupivacaine], the anti-hyperalgesic activity [1] is given as “does not possess any anti-hyperalgesic activity”.
In the case of `NCC1(CC(=O)O)CCCCC1` [gabapentin], the “suppression of CFA-induced tactile allodynia” value [2] is reported as “not”.
In the case of `CC[N+](CC)(CC)CC(=O)Nc1c(C)cccc1C` [QX-314], the “block of Ih” value [3] is listed as “blocks Ih”.
For `CN1CC[C@]23c4c5ccc(O)c4O[C@H]2[C@@H](O)C=C[C@H]3[C@H]1C5` [morphine], the “suppression of CFA-induced tactile allodynia” value [2] was “suppressed” and the “suppression of spontaneous pain behaviors” value [4] was “near complete suppression”.
For `CCN(CC)CC(=O)Nc1c(C)cccc1C` [lidocaine], the “reversibility of Ih block” value [5] is given as “reversible”, the EC50 ([5]; bath-applied at neutral pH, current at −134 mV, 3 cells, read-out: ED50 of concentration-dependent block of Ih) is given as 23 µM and the EC50 [6] is given as 38.2 µM.
With `CC(C)Cc1ccc(C(C)C(=O)O)cc1` (stereo not shown) [ibuprofen] the “suppression of CFA-induced tactile allodynia” value [2] was “suppressed” and the “suppression of CFA-induced tactile allodynia” value ([2]; listed as Ibuprofen) was “some efficacy”.
